Measured values as given in patent US4259450A, “Antibiotic acanthomycin and process for preparing” (The Upjohn Company, priority 1977, dated 1981).

Legend:
S. pyogenese = assay: in vivo protection of S. pyogenes infected mice; settings: administered subcutaneously
S. aureus [1] = assay: in vivo protection of S. aureus infected mice
Experimental: Acanthomycin was also tested in vivo in standard laboratory mice. […] Against S. aureus infected mice the CD50 was 1.0 mg/kg.

Solubilities = assay type: physicochemical
S. lutea = assay: standard tube assay for antibacterial activity, nutrient broth; assay type: cell-based, Sarcina lutea
Experimental: (§1) Acanthomycin was tested for antibacterial activity in a standard tube assay using nutrient broth as the medium. The minimum inhibitory concentration in mcg/ml against S. aureus was 50, and against S. lutea it was 25. Additional testing on a standard disc (12.7 mm) plate assay gave the following results: […]

S. aureus [2] = assay: as above; assay type: cell-based, Staphylococcus aureus
Experimental: as §1

Streptococcus pyogenes = assay: standard disc (12.7 mm) plate assay; assay type: cell-based
Experimental: (§2) Acanthomycin was tested for antibacterial activity in a standard tube assay using nutrient broth as the medium. The minimum inhibitory concentration in mcg/ml against S. aureus was 50, and against S. lutea it was 25. Additional testing on a standard disc (12.7 mm) plate assay gave the following results:
(§3) The fermentation can be monitored by a disc-plate assay using B. subtilis as the test organism and deionized H2 O as diluent. A unit volume (0.08 ml) of solution containing the substance to be assayed is placed on a 12.7 mm paper disc which is then placed on an agar plate seeded with the assay organism. The agar plate is then incubated for 16 to 18 hours at 32° to 37° C. A biounit (BU) is defined as the concentration of the antibiotic which gives a 20 mm zone of inhibition under the standard assay conditions. Thus, if for example a fermentation beer has to be diluted 1/100 to give a 20 mm zone of inhibition, the potency of such beer is 100 BU/ml.

Bacillus subtilis = assay: standard disc (12.7 mm) plate assay; assay type: cell-based
Experimental: as §2, §3

Bacillus cereus = assay: standard disc (12.7 mm) plate assay; assay type: cell-based
Experimental: as §2, §3

Staphylococcus aureus = assay: standard disc (12.7 mm) plate assay; assay type: cell-based
Experimental: as §2, §3

Sarcina lutea = assay: standard disc (12.7 mm) plate assay; assay type: cell-based
Experimental: as §2, §3

[3] = free acid, slightly soluble, ca.

What does the source list for acanthomycin?
CD50 (S. pyogenese): 0.23 (0.17-0.31) mg/kg; CD50 (S. aureus [1]): 1.0 mg/kg; solubility in dimethylformamide (Solubilities; free acid): soluble; solubility in dimethylsulfoxide (Solubilities; free acid): soluble; solubility in ether (Solubilities; free acid): relatively insoluble; solubility in halogenated hydrocarbon solvents (Solubilities; free acid): relatively insoluble; solubility in saturated hydrocarbon solvents (Solubilities; free acid): relatively insoluble; solubility in water (Solubilities; free acid): relatively insoluble; solubility in ethanol (Solubilities; [3]): 1000 to 2000 µg/mL; solubility in methanol (Solubilities; [3]): 1000 to 2000 µg/mL; minimum inhibitory concentration (S. lutea): 25 µg/mL; minimum inhibitory concentration (S. aureus [2]): 50 µg/mL; Zone (Streptococcus pyogenes; 0.31 mg/ml): 34 mm; Zone (Streptococcus pyogenes; 0.62 mg/ml): 36.5 mm; Zone (Streptococcus pyogenes; 1.25 mg/ml): 38.5 mm; Zone (Streptococcus pyogenes; 2.5 mg/ml): 40 mm; Zone (Streptococcus pyogenes; 5 mg/ml): 40 mm; Zone (Streptococcus pyogenes; 10 mg/ml): 41.5 mm; Zone (Bacillus subtilis; 0.31 mg/ml): 26 mm; Zone (Bacillus subtilis; 0.62 mg/ml): 28 mm; Zone (Bacillus subtilis; 1.25 mg/ml): 30 mm; Zone (Bacillus subtilis; 2.5 mg/ml): 31.5 mm; Zone (Bacillus subtilis; 5 mg/ml): 33 mm; Zone (Bacillus subtilis; 10 mg/ml): 34 mm; activity against B. subtilis (Bacillus subtilis; statement in words): active; Zone (Bacillus cereus; 0.31 mg/ml): 17 mm; Zone (Bacillus cereus; 0.62 mg/ml): 20 mm; Zone (Bacillus cereus; 1.25 mg/ml): 21 mm; Zone (Bacillus cereus; 2.5 mg/ml): 23 mm; Zone (Bacillus cereus; 5 mg/ml): 25 mm; Zone (Bacillus cereus; 10 mg/ml): 26 mm; Zone (Staphylococcus aureus; 0.31 mg/ml): 22.5 mm; Zone (Staphylococcus aureus; 0.62 mg/ml): 24.5 mm; Zone (Staphylococcus aureus; 1.25 mg/ml): 26.5 mm; Zone (Staphylococcus aureus; 2.5 mg/ml): 28 mm; Zone (Staphylococcus aureus; 5 mg/ml): 28.5 mm; Zone (Staphylococcus aureus; 10 mg/ml): 29.5 mm; activity against S. aureus (Staphylococcus aureus; statement in words): active; Zone (Sarcina lutea; 0.31 mg/ml): 25 mm; Zone (Sarcina lutea; 0.62 mg/ml): 27 mm; Zone (Sarcina lutea; 1.25 mg/ml): 30 mm; Zone (Sarcina lutea; 2.5 mg/ml): 32 mm; Zone (Sarcina lutea; 5 mg/ml): 34 mm; Zone (Sarcina lutea; 10 mg/ml): 35 mm

What does the source list for acanthomycin ammonium salt?
solubility in lower alcohols (Solubilities; salts (ammonium and sodium)): soluble; solubility in water (Solubilities; salts (ammonium and sodium)): soluble
